The nature of the series: solubility in water. It is filed as physicochemical. The text has this: The compound of formula (XIII) was made and analyzed.

Structures are written as SMILES.

For `N[C@@H](COC(=O)CCC(=O)OCC(O)CO)C(=O)O` (stereo partly shown) [formula (XIII)], the solubility was 1200 mg/mL.

What is called solubility is the dissolved amount per volume that the medium holds. A higher solubility goes with much dissolved substance.
